By GI50 is commonly meant the concentration that inhibits growth by half. One may read the IC50 as the concentration that inhibits the measured activity by half. Low readings indicate greater potency in that assay, high ones weaker potency in that assay.

The subject of one experiment is SR. Also on record: method as in earlier work. The following applies: imatinib mesylate NSC 743414, NCI data; cited from earlier work.
A further experiment relates to HCT-15. Also on record: method as in earlier work. The conditions noted are these: imatinib mesylate NSC 743414, NCI data; cited from earlier work.
For another experiment, the system named is U251. Also on record: method as in earlier work. The following applies: imatinib mesylate NSC 743414, NCI data; cited from earlier work.
The subject of another experiment is SK-MEL-5. Set-up: method as in earlier work. The following applies: imatinib mesylate NSC 743414, NCI data; cited from earlier work.
The test system of the next experiment is OVCAR-3. Set-up: method as in earlier work. The conditions noted are these: imatinib mesylate NSC 743414, NCI data; cited from earlier work.
The next experiment relates to OVCAR-4. Set-up: method as in earlier work. The following applies: imatinib mesylate NSC 743414, NCI data; cited from earlier work.
For the next experiment, the system named is OVCAR-5. Also on record: method as in earlier work. The conditions noted are these: imatinib mesylate NSC 743414, NCI data; cited from earlier work.
The subject of another experiment is SK-OV-3. Also on record: method as in earlier work. The conditions noted are these: imatinib mesylate NSC 743414, NCI data; cited from earlier work.
The next experiment deals with MCF7. Set-up: method as in earlier work. The conditions noted are these: imatinib mesylate NSC 743414, NCI data; cited from earlier work.
A further experiment concerns the target DDR1 (Homo sapiens, UniProt Q08345). The experiment in a line: Kinase selectivity test against DDR1. The format is biochemical. As for the experimental part:
On the other hand, to gain certain insights about the kinase selectivity of this array of ureidobenzothiazoles, compounds 2a and 2b were tested against DDR1 (Figure 4). Discoidin domain receptors (DDR1/2) are transmembrane receptor tyrosine kinases (RTKs), activated by fibrillar collagens. DDR1/2 and BCR-ABL share almost 61% sequence similarities in their ATP binding domains. […] This observation points out the merit of these ureidobenzothiazoles over the known BCR-ABL inhibitors in achieving exceptional selectivity towards BCR-ABL.

Each structure is given as a SMILES string.

Sequence of DDR1 (Q08345 19-913, species assumed): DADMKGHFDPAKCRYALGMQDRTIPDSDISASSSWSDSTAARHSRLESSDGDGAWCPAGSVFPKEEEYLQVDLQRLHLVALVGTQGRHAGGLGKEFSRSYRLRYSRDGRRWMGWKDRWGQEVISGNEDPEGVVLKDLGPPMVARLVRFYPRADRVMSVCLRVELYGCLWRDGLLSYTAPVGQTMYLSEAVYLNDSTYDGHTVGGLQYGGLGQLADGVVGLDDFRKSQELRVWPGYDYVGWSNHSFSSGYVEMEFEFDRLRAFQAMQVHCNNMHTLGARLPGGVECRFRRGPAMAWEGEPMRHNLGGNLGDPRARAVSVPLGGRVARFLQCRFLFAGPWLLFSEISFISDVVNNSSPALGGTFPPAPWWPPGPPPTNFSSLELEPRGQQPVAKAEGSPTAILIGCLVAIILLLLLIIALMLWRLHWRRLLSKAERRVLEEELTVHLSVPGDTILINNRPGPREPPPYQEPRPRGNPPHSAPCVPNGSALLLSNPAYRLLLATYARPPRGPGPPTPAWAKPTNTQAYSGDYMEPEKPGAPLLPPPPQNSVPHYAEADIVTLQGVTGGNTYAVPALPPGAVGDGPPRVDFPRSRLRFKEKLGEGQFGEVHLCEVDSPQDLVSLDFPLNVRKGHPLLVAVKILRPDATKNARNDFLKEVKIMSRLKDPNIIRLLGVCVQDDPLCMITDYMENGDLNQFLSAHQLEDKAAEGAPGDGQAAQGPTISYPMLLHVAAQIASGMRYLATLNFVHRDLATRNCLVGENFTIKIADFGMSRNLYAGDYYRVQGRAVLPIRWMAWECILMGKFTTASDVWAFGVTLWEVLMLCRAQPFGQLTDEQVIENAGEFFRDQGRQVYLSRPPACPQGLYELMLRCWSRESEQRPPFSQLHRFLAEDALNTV

With `Cc1ccc(NC(=O)c2ccc(CN3CCN(C)CC3)cc2)cc1Nc1nccc(-c2cccnc2)n1` [Imatinib], the GI50 in the experiment on SR is 7.14 µM; in the experiment with HCT-15, 19.9 µM; in the experiment with U251, 18 µM; in the experiment on SK-MEL-5, 12.1 µM; with OVCAR-3, 34.2 µM; in the experiment on OVCAR-4, 20 µM. In addition, the values for the GI50 with OVCAR-5, with SK-OV-3 and in the experiment on MCF7 were 0.58 µM, 28.9 µM and 18.2 µM, respectively.

In the case of `CCN1CCN(c2ccc(NC(=O)Nc3nc4ccc(-c5ccccc5OC)cc4s3)cc2)CC1` [Compound 2b], inhibition against DDR1 was half-maximal at 0.199 µM (IC50).
